Measured values reported in patent US12233164B2, “Drug delivery composition and method of fabrication” (DIGNITY HEALTH, priority 2017, dated 2025).

Legend:
[1] = Controlled release of quisinostat from dialysis cassette into PBS; assay type: physicochemical; details: 37° C., 3.5k MWCO dialysis cassette
Procedure: Controlled Release Quisinostat release from nanoparticles was determined using a protocol adapted from Wang et al.. Nanoparticles were diluted to 20 mg/ml in PBS (pH 7) and 400 μl was transferred to a 3.5 k MWCO Slide-A-Lyzer Dialysis cassette (Thermo Fisher Scientific, Waltham, MA USA) in triplicate. Each cassette was immersed in 2 l PBS (pH 7, replaced at each time point) at 37° C. with gentle stirring (100 rpm). At each time point, 30 μl nanoparticles was removed from the cassette and dissolved in 150 μl DMSO. 60 μl dissolved nanoparticles was added in triplicate to a clear, flat bottom, 96-well plate, and the amount of drug remaining was quantified by absorbance as described above. A free quisinostat control at the equivalent concentration was included to measure quisinostat movement across the membrane using the same protocol.

[2] = system: GL261 murine glioma cells; assay: In vitro nanoparticle efficacy, CellTiter-Glo cell viability; assay type: cell-based; details: Mus musculus, 72 hours, read-out: IC50, growth inhibition
Procedure: Cell Culture GL261-LucNeo cells were generated by retroviral transduction of parent GL261 cells. The LucNeo construct (obtained from AndrewKung laboratory, Dana-Farber Cancer Institute) is described in Rubin et al.. Cells were maintained under normal adherent culture conditions supplemented with G-418 as a selection pressure. Cells were grown in T25 flasks in DMEM containing glucose, L-glutamine and 10% FBS at 37° C. and 5% CO2. 0.25% trypsin-EDTA was applied to collect cells, and a Cellometer mini (Nexcelom Bioscience, Lawrence, MA USA) was used to count cells prior to all in vitro and in vivo experiments.
In vitro Nanoparticle Efficacy GL261 cells were seeded in 96-well flat, white walled, clear bottom plates at a density of 3 k cells/well in 100 μl media and allowed to attach for 4 hours prior to adding treatments. Each plate was treated with 10 μl/well of 19 serial dilutions (1:2) ranging from 10 to 0 μM in PBS of either free drug or nanoparticles. After 72 hours, cell viability was assessed using CellTiter-Glo, and an IC50 value was calculated using GraphPad Prism (San Diego, CA USA) by a nonlinear fit of the log (inhibitor) vs. response function.

[3] = system: orthotopic GL261-LucNeo tumors; assay: Treatment efficacy in mice bearing orthotopic GL261 tumors (bioluminescence tumor growth, survival); assay type: in vivo, C57BL/6 albino mice; details: free drug study: 10 mg/kg IP, days 11, 12, 18, 19, n=5
Procedure: Tumor induction Orthotopic GL261-LucNeo tumors were induced in C57BL/6 albino mice (Harlan Laboratories, Indianass, IN, USA) as previously reported. Briefly, mice were anesthetized with an intraperitoneal injection of ketamine/xylazine (100/10 mg/kg) and mounted in a stereotaxic frame (Kopf Instruments, Tujunga, CA, USA) on top of an infrared heating pad to maintain animal temperature. The animal's head was shaved and sterilized with three alternating passes each of betadine and ethanol. A 1 cm incision was made over midline, and a burr hole was drilled 2 mm lateral, 0.1 mm posterior of bregma. A hamiltion syringe (29 gauge needle) containing 75 k GL261-LucNeo cells in 2 μl DMEM was inserted into the hole to a depth of 2.8 mm and the cells were injected over 2 min. The needle was left in place for 1 min to reduce backflow before the wound was closed with staples. All animals received a subcutaneous (SQ) injection of Buprenorphine SR prior to surgery, and ibuprofen was provided in their water ad lib for 1 week for pain. […]
Tumor treatment Quisinostat-loaded nanoparticles were tested in vivo in mice bearing orthotopic GL261 tumors. […] Treatment efficacy was measured by tumor growth and median survival. Mice were monitored daily and euthanized at the sign of symptoms (lack of grooming, abnormal gait, hunched posture, etc.) or greater than 15% weight loss. […]

[4] = solubilized with hydroxy-propyl-β-cyclodextrin and/or mannitol; IP or SQ injection; cited from earlier work

Cn1cc(CNCC2CCN(c3ncc(C(=O)NO)cn3)CC2)c2ccccc21 [quisinostat, Quisinostat]
time to complete quisinostat release [1]: ≤ 4 h | IC50 [2]: 24 nM | tumor doubling time ([3]; saline 2.4 days): 2.4 days | median survival ([3]; saline 22 days): 19 days | maximum tolerated dose [4]: 35-70 mg/kg/week
